Structures can show the parent of a compound that is named as a salt.
Columns and labels:
TGF-β R1 ALK5 = molecular target: T1, TGF-β R1 ALK5 (Homo sapiens, UniProt P36897); assay: In vitro inhibition of ALK5 (LanthaScreen activity assay, TR-FRET); format: biochemical
T1 construct: purchased Invitrogen PV5837
T1 sequence (P36897 34-503): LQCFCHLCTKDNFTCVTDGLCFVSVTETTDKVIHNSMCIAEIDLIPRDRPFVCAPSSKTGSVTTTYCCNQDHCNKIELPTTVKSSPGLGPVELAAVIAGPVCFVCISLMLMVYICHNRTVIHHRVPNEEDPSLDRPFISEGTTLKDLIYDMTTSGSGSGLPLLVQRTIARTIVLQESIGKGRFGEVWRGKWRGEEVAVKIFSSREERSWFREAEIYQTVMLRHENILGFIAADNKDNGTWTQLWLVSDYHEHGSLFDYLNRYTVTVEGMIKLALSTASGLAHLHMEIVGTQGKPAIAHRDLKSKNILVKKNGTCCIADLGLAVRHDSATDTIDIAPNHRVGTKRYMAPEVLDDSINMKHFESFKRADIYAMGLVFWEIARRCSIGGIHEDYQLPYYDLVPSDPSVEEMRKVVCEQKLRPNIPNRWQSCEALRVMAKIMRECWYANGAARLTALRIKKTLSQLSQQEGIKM

cellular TGF-β R1 ALK5 = molecular target: T2, cellular TGF-β R1 ALK5 (Homo sapiens, UniProt P36897); assay: Cellular inhibition of ALK5 (CellSensor SBE-bla HEK 293T beta-lactamase reporter); format: cell-based; conditions: cellular inhibition of ALK5, SBE-bla HEK 293T cells, TGFb-1 stimulated 5 hours; average where measured in multiple experiments
T2 construct: host or cells: CellSensor SBE-bla HEK 293T
T2 sequence (P36897 34-503): T1 sequence (P36897 34-503)
Procedure, shortened: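 pIC50 derives from non-linear fitting of percent inhibition of the 460/530 nm CCF4-AM emission ratio, relative to DMSO+TGF-β wells. HEK 293T SBE-bla cells received compound (0.5% DMSO) for 1 h, TGFb-1 (100 ng/mL stock) for 5 h at 37 °C, then substrate 2 h at RT.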

melting point | IC50 (TGF-β R1 ALK5) | IC50 (cellular TGF-β R1 ALK5) | SMILES
248 °C |  |  | CNC(=O)n1ncc2nccc(Nc3cc(C)nc(-c4cc(Cl)ccc4F)c3)c21 (as salt: TFA) [Example 58, 7-(2-(5-chloro-2-fluorophenyl)-6-methylpyridin-4-ylamino)-N-methyl-1H-pyrazolo[4,3-b]pyridine-1-carboxamide]
245 °C |  |  | CCNC(=O)n1ncc2nccc(Nc3cc(C)nc(-c4cc(Cl)ccc4F)c3)c21 (as salt: TFA) [Example 59, 7-(2-(5-chloro-2-fluorophenyl)-6-methylpyridin-4-ylamino)-N-ethyl-1H-pyrazolo[4,3-b]pyridine-1-carboxamide]
135 to 136 °C |  |  | Cc1ccc(F)c(-c2cc(Nc3ccnc4cnn(CC(C)(C)O)c34)ccn2)n1 (as salt: TFA) [Example 70, 1-(7-(3′-fluoro-6′-methyl-2,2′-bipyridin-4-ylamino)-1H-pyrazolo[4,3-b]pyridin-1-yl)-2-methylpropan-2-ol]
102.9 to 103 °C | 25.1 nM | 79.4 nM | Cc1ccc(F)c(-c2cc(Nc3ccnc4cn(C)nc34)c(C)cn2)n1 [Example 123, N-(3′-fluoro-5,6′-dimethyl-2,2′-bipyridin-4-yl)-2-methyl-2H-pyrazolo[4,3-b]pyridin-7-amine]
